What all share (format): in vivo
Test [1] deals with Fusarium graminearum (GIBBZE). The following applies: 360 ppm.
The subject of test [2] is Phytophthora infestans (PHYTIN). The following applies: for % efficacy (% fungal attack) PHYTIN: 360 ppm, in planta.
For test [3], the system named is Septoria tritici (SEPTTR). The following applies: 360 ppm, protective application.

Where a SMILES comes first, the peptide text is derived from it. Bridges are numbered along the chain shown (N, C = ends). The star is where a group is joined. ξ: configuration not given here. Pentadecanoyl(3ξ-OH,15-Gua) = N=C(N)NCCCCCCCCCCCCC(O)CC(=O)*

As to `CCC(C)C1NC(=O)C(NC(=O)CC(O)CCCCCCCCCCCCNC(=N)N)C(C)OC(=O)C(C)NC(=O)C(CC(N)=O)NC(=O)C(C(C)O)NC(=O)C(Cc2ccc(O)cc2)NC1=O` (stereo not drawn) [Compound 1A, fusaricidin 1A] ({Pentadecanoyl(3ξ-OH,15-Gua)}-TIYTNA; ester 1-C; configuration not given here), the “% efficacy (% fungal attack) GIBBZE” value in test [1] (in planta) came to 49%. Besides, in test [1] (protective application), the “% efficacy (% fungal attack), head blight on wheat caused by Fusarium graminearum” value is 49%. Also, the “% efficacy (% fungal attack) PHYTIN” value in test [2] turned out to be 100%.

Take `CCC(C)C1NC(=O)C(NC(=O)CC(O)CCCCCCCCCCCCNC(=N)N)C(C)OC(=O)C(C)NC(=O)C(CCC(N)=O)NC(=O)C(C(C)O)NC(=O)C(Cc2ccc(O)cc2)NC1=O` (stereo not drawn) [Compound 1B, fusaricidin 1B] ({Pentadecanoyl(3ξ-OH,15-Gua)}-TIYTQA; ester 1-C; configuration not given here): in test [2] (7.2 ppm, protective application), the “% efficacy (% fungal attack), late blight on tomato caused by Phytophthora infestans” value stood at 44%. The “% efficacy (% fungal attack) PHYTIN” value in test [2] stood at 100%. Besides, the “% efficacy (% fungal attack), head blight on wheat caused by Septoria tritici” value in test [3] is 80%.

(Values after US11185078B2 (priority 2016, dated 2021).)
